Data on three molecules can be found in publication PMC4468427, “Antiviral activity of silymarin against chikungunya virus” (Scientific Reports, 2015).

The subject of data set [1] is CHIKV. Briefly: Post-entry virus yield assay, CHIKV RNA copy number by qRT-PCR. Particulars: for Inhibitory effect against CHIKV replication (RNA copy number): virus yield assay, qRT-PCR, Vero cells. In general terms: Real-time PCR tracks product formation cycle by cycle.
Another data set relates to CHIKV replicon. On the set-up: method as in PMID 22205980. Particulars: previous study, cited from earlier work.
In a further data set the test system is Vero cells. Briefly: MTS cytotoxicity assay on Vero cells. Particulars: Vero cells, MTS assay, 2 days; more than 95% of treated cells viable.
Data set [2] can be described thus: MTS cytotoxicity assay on Vero cells. Particulars: African green monkey. Background: Tetrazolium dyes change colour on reduction, which living cells bring about.
The next data set deals with BHK-21 cells. Briefly: MTS cytotoxicity assay on BHK-21 cells. Conditions: BHK-21 cells, MTS assay, 2 days; more than 95% of treated cells viable.
A short description of data set [3]: MTS cytotoxicity assay on BHK-21 cells. Particulars: hamster.
For data set [4], the system named is CHIKV. Briefly: Primary screening: CPE inhibition assay (confirmed by MTS) in CHIKV-infected Vero cells. Particulars: for Antiviral activity in CPE inhibition and MTS assays: MOI = 1, 48 h; for CPE inhibitory activity: highest concentrations (tested as high as 200 μg/ml), MOI = 1, 48 hpi.

Converted amounts (≈) assume the structure as drawn. “Also recorded” adds a separate entry of the source. Where two headings read alike, the source gives them in different places.

For the molecule `COc1cc(C2Oc3cc([C@H]4Oc5cc(O)cc(O)c5C(=O)[C@@H]4O)ccc3OC2CO)ccc1O` (stereo partly shown) [Silybin], the IC50 (as a rule, the midpoint of a concentration-inhibition curve) in the data set on CHIKV [1] (Chikungunya virus, Vero) was 69.7 µg/mL (≈ 144 µM); with CHIKV replicon (converted from μM), “approximately 30 μg/ml”; with CHIKV replicon (read-out: IC50), 59.8 µM. Further, in the data set with Vero cells, the “MNTD (maximum non-toxic dose)” value is greater than 50 µg/mL. Also, in data set [2], the CC50 (as a rule, the concentration at which the toxic effect on the cells reaches its halfway point) at 48 h was greater than 200 µg/mL.

As for `O=c1c(O)c(-c2ccc(O)cc2)oc2cc(O)cc(O)c12` [Kaempferol], the “MNTD (maximum non-toxic dose)” value is greater than 200 µg/mL with BHK-21 cells and greater than 400 µg/mL in the data set on Vero cells. Further, the CC50 at 2 days in data set [3] was 537 µg/mL (≈ 1880 µM). The “Inhibitory effect against CHIKV replication (RNA copy number)” value in the data set with CHIKV [1] is on record as “neither kaempferol nor quercetin showed any significant inhibitory effect; also recorded: no significant inhibitory effect”. In addition, the CC50 at 48 h in data set [2] was greater than 1000 µg/mL. Besides, the “Antiviral activity in CPE inhibition and MTS assays” value with CHIKV [4] is listed as “neither kaempferol nor quercetin showed significant antiviral activity”. In addition, the CPE inhibitory activity with CHIKV [4] was determined as 25%.

Turning to `O=c1c(O)c(-c2ccc(O)c(O)c2)oc2cc(O)cc(O)c12` [Quercetin], the “MNTD (maximum non-toxic dose)” value with BHK-21 cells is greater than 500 µg/mL. The molecule further showed a CC50 at 2 days in data set [3] greater than 800 µg/mL. The “Inhibitory effect against CHIKV replication (RNA copy number)” value in the data set on CHIKV [1] is recorded as “neither kaempferol nor quercetin showed any significant inhibitory effect; also recorded: no significant inhibitory effect”. Also, in the data set on Vero cells, the “MNTD (maximum non-toxic dose)” value was greater than 400 µg/mL. In data set [2], the CC50 at 48 h was greater than 1000 µg/mL. In the data set with CHIKV [4], the “Antiviral activity in CPE inhibition and MTS assays” value is recorded as “neither kaempferol nor quercetin showed significant antiviral activity”; the CPE inhibitory activity was 25%.
